# Patent US20190060298A1, “NEW DRUG FOR THE TREATMENT AND/OR PREVENTION OF DEPRESSIVE DISORDERS” (SORBONNE UNIVERSITE, priority 2013, published 2019)
# Legend:
# [1] = test system: lipid peroxidation (MDA); experiment: Lipid peroxidation (TBARS/MDA) in hippocampus; format: in vivo, Sprague-Dawley rats; conditions: V rats; 288 μmol/kg/day, 15 days from D11; D31
# Description: (§1) The right hippocampus was homogenized in ice-cold buffer (Tris-HCl 50 mM pH 7.5, 150 mM NaCl, 1 mM EDTA) and used for TBARS and glutathione peroxidase (GPx) assays.
# (§2) For the TBARS assay, protease inhibitors (50 μl/ml), DOC (1%), SDS (0.1%) and Triton® X-100 (0.5%) were added immediately in ice-cold buffer. For the GPx assay, 0.1 M dithiothreitol was added immediately in ice-cold buffer. The homogenates were centrifuged and the supernatants were retained for analysis. Lipid peroxidation was assessed by measuring TBARS formation with a commercial assay kit (Cayman Chemical, Ann Arbor, Mich., USA), in accordance with the manufacturer's instructions. TBARS concentration was calculated from an MDA standard curve and normalized. Total GPx activity in the homogenate was measured in accordance with the kit manufacturer's instructions (Cayman Chemical, Ann Arbor, Mich., USA). GPx specific activity is expressed as nmoles of NADPH consumed per minute per mg of hippocampal tissue. No difference in hippocampal weight was observed between defeated, vulnerable, non-vulnerable and control animals.
# (§3) Tempol (4-hydroxy-2,2,6,6-tetramethylpiperidine 1-oxyl), which was administered at a dose of 288 μmol/kg/day [Sigma-Aldrich, St Louis, Mo., USA]), was dissolved in distilled water and delivered via ALZET osmotic mini-pumps (2002, Charles River Laboratories, France). […]
# [2] = test system: glutathione peroxidase (GPx); experiment: Glutathione peroxidase activity in hippocampus; format: in vivo, Sprague-Dawley rats; conditions: 288 μmol/kg/day, 15 days from D11; D31
# Description: as §1, §2, §3
# [3] = test system: catalase; experiment: Catalase activity in hippocampus; format: in vivo, Sprague-Dawley rats; conditions: 288 μmol/kg/day, 15 days from D11; D31
# Description: The animals were decapitated and the left hippocampus was homogenized in ice-cold buffer (20 mM Hepes pH 7.2, 1 mM EGTA, 210 mM mannitol, 70 mM sucrose). Homogenates were centrifuged and the supernatants were retained for analysis. Catalase and total SOD activities were immediately determined with commercially available kits (Cayman Chemical, Ann Arbor, Mich., USA), in accordance with the manufacturer's instructions. SOD and catalase specific activities are expressed as units per mg of hippocampus and as nmoles of formaldehyde formed per minute per mg of hippocampal tissue, respectively.
# (§4) Tempol (4-hydroxy-2,2,6,6-tetramethylpiperidine 1-oxyl), which was administered at a dose of 288 μmol/kg/day [Sigma-Aldrich, St Louis, Mo., USA]), was dissolved in distilled water and delivered via ALZET osmotic mini-pumps (2002, Charles River Laboratories, France). Tempol- or distilled water-filled pumps were implanted subcutaneously on the back of intruder rats under light anesthesia with isofluorane, 11 days after completion of the social-defeat procedure (D11), and were left in place for 15 days.
# [4] = test system: CA3 neurons; experiment: Golgi staining, hippocampal CA3 neuron morphology; format: in vivo, Sprague-Dawley rats; conditions: 288 μmol/kg/day, 15 days
# Description: At D11 and D31, unperfused brains were rapidly removed and processed with the FD Rapid Golgistain kit (FD NeuroTechnologies), as previously described by Blugeot et al. (2011). Histological quantification: for each rat, the total dendrite length of apical CA3 dendritric branches was measured for selected neurons with AxioVision 4.7 software and a Zeiss Imager M1 microscope. 3-5 hippocampal neurons per rat are selected for measurement by an investigator blind to the origin of the experimental animal. Dendritic tracing was quantified by Sholl analysis (Sholl, 1953). The number of intersections between the dendrites and the concentric circles was counted and plotted as a function of the distance from the soma. The density of dendritic spines was estimated by counting the number of apical dendritic spines in 3-4 segments of 15 μm located in the stratum radiatum, at 1000× resolution. Spine density was expressed as the number of spines per 15 μm length of apical dendrite.
# as §4
# [5] = test system: Sprague-Dawley rats; experiment: Forced swimming test after sensitization paradigm; format: in vivo; conditions: V animals; TEMPOL 288 μmol/kg/day 15 days from D11; after three weeks of CMS applied at D31
# Description: (§5) Sprague-Dawley rats were subjected to chronic social defeat (CSD) and then, four weeks later, to three weeks of chronic mild stress (SSP rats). The chronic mild stress protocol (CMS) was performed as previously described (see Blugeot et al., 2011). The control rats were control intruders (not subjected to CSD) not exposed to the three weeks of CMS (C rats).
# (§6) The CMS protocol is derived from that described by Willner et al. (1992). Briefly, various mild stresses were applied every day, over a period of three weeks. Briefly, from Monday to Friday, every morning, animals were placed in a small cage (10×16×15 cm) for 1 hour. In the afternoon, they were shaken for 10 min (Monday and Thursday), placed in a small cage containing water (2 cm high, Tuesday) or placed in another cage for 4 hours (Wednesday and Friday). Every night, the cage was inclined (45°, Tuesday and Thursday) or contained wet bedding (Wednesday and Friday). On Saturday and Sunday, the rats were subjected to a reversed dark/light cycle for 30 min, every three hours.
# Four days after the end of SSP paradigm (D52), FST experiments were performed between 08:00 and 11:30. Experiments were performed as described by Becker et al. (2008, Mol. Psychiatry 13, 1079) and Blugeot et al. (2011). Immobility time was measured with a stopwatch. […] A trained experimenter blind to the treatment observed the animals and measured immobility time. […]
# [6] = test system: Sprague-Dawley rats; experiment: Depression-like profile after sensitization paradigm (CSD then CMS); format: in vivo; conditions: TEMPOL administrated before CMS
# Description: as §5, §6, §3
# [7] = test system: CA3 pyramidal cells; experiment: CA3 dendritic architecture in Nrf2-null mice; format: in vivo; conditions: Tempol 288 μmol/kg/day, osmotic mini-pump, 4 weeks
# Description: Nrf2-null mice were backcrossed onto the C57BL/6 J background for seven generations using alternating male and female stock mice from the CNRS TAAM UPS44 (Orléans). The resulting wild-type (Nrf2+/+) and Nrf2−/− mice were genotyped and only male mice at 6 weeks old at the beginning of the experiments were used. The level of oxidative stress in mice was first evaluated through the measure of lipid peroxidation. Lipid peroxidation was assessed by measuring TBARS formation with a commercial assay kit (Cayman Chemical, Ann Arbor, Mich., USA), in accordance with the manufacturer's instructions. TBARS concentration was calculated from an MDA standard curve and normalized.
# To examine the depression-like phenotype of Nrf2-null mice, the helplessness behaviour, anhedonia and HPA hyperactivity (corticosterone, and adrenal gland weight) were assessed before and after a chronic mild stress (CMS) protocol. The neuroanatomical morphology of hippocampus in mice was estimated using Golgi Staining procedure. Tempol (4-hydroxy-2,2,6,6-tetramethylpiperidine 1-oxyl, Sigma-Aldrich, St Louis, Mo., USA), which was administered at a dose of 288 μmol/kg/day (Wilcox, 2010), was dissolved in distilled water and delivered via ALZET osmotic mini-pumps (1004, Charles River Laboratories, France). […]
compound,measurement,setting,value
"CC1(C)CC(O)CC(C)(C)N1[O] [TEMPOL, 4-hydroxy-2,2,6,6-tetramethylpiperidin-1-oxyl]",lipid peroxidation (MDA),[1],lack of
same,glutathione peroxidase (GPx) activity,[2],mild effect
same,catalase activity,[3],no effect
same,dendritic trees (total apical dendrite length of CA3 neurons),"[4]; NV and V animals, D31",fully restored
same,spine density (CA3 dendritic spines),"[4]; NV and V animals, D31",fully restored
same,total length of hippocampal neurons,[4]; non-vulnerable and control animals vs vehicle-treated,tends to increase
same,immobility time in the forced swimming test,[5],prevented the increase in immobility time
same,depression-like profile generated by the CMS,[6],abolished
same,dendritic retraction in CA3 pyramidal cells,[7],prevented
